# In US8648105B2, “Diarylthiohydantoin compounds” (The Regents of the University of California, priority 2006, dated 2014):
# Entries after “also recorded” stand apart in the source; their conditions may differ.
# Assays:
# [1] = tested on: LN-AR(HR) cell line tumors; assay: LN-AR(HR) cell line tumors in SCID mice (FIG. 19); type: in vivo; conditions: 10 mg per kg body weight per day
# Source text: (A) The relative tumor volume as a function of time shown for each set of mice. (B) Images of each set of mice with photon emission associated with luciferase activity at day 31 shown as color contours. (C) Rate of photon emission associated with luciferase activity shown at several times for each set of mice.
# [2] = tested on: LNCaP hormone sensitive xenograft; assay: LNCaP hormone sensitive xenograft model
# Method: Each set included 6 mice. The mice were treated with 10 mg/kg per day.
# [3] = tested on: AR-overexpressed LNCaP xenograft tumors; assay: AR-overexpressed LNCaP xenograft model in castrated SCID mice; type: in vivo
# Method: FIG. 7 is a graph of tumor size. AR overexpressing LNCaP cells were injected in the flanks of castrated SCID mice, subcutaneously. When tumors reached about 100 cubic mm, they were randomized into five groups. Each group had nine animals. […]. The tumors were measured three-dimensionally, width, length and depth, using a caliper.
# FIG. 8 depicts experimental results of tumor size. At day 18, the animals were imaged via an optical CCD camera, 3 hours after last dose of treatment. A ROI was drawn over the tumor for luciferase activity measurement in photon/second. The right panels is a representation of the ROIs measurements.
# Compounds of the invention are used to examine if the diaryihydantoin derivatives have in vivo effects on hormone refractory prostate cancer. First we examine this compound on xenograft tumors established from AR-overexpressed LNCaP cells. Engineered cells in Matrigel (Collaborative Biomedical) are injected subcutaneously into the flanks of the castrated male SCID mice. Tumor size is measured weekly in three dimensions using calipers. After xenograft tumors established (tumor size at least 40 mm^3), mice with tumors are randomized and treated with different doses of compounds orally once daily. The inhibitory effect on growth of AR-overexpressed LNCaP xenograft model is studied as follows. Mice with established LN-AR xenograft tumors are randomized and treated with indicated compounds orally once daily. Tumor size are measured by caliber.
# All animal experiments were performed in compliance with the guidelines of the Animal Research Committee of the University of California at Los Angeles. Animals were bought from Taconic and maintained in a laminar flow tower in a defined flora colony. LNCaP-AR and LNCaP-vector cells were maintained in RPMI medium supplemented with 10% FBS. 10^6 cells in 100 μl of 1:1 Matrigel to RPMI medium were injected subcutaneously into the flanks of intact or castrated male SCID mice. Tumor size was measured weekly in three dimensions (length×width×depth) using calipers. Mice were randomized to treatment groups when tumor size reached approximately 100 mm^3. Drugs were given orally every day at 10 mg/kg and 50 mg/kg. To obtain pharmacodynamic readout, the animals were imaged via an optical CCD camera, 3 hours after last dose of the treatment. A ROI is drawn over the tumor for luciferase activity measurement in photon/second. The right panels were a representation of the ROIs measurements. […]
# LIAR cell line = assay: Luciferase activity of the LIAR cell line (FIG. 25); type: cell-based; conditions: 125 nmol to 1000 nmol
# Source text: FIG. 25 is a graph of luciferase activity of the LIAR cell line dosed with various compounds administered at concentrations ranging from 125 nmol to 1000 nmol.
# The inventors have determined that what might appear to be a small change in the structure of hydantoin compounds may result in a large change in that compound's performance in treating prostate cancer.
# AR = target: T1, AR (Homo sapiens, UniProt P10275); type: cell-based; design: rows headed: IC50 (nM) Reporter; Fold induction, AR response reporter; agonistic activity on AR response reporter (w); conditions: 125 nM to 1000 nM, FIG. 3
# T1 sequence (P10275 1-920): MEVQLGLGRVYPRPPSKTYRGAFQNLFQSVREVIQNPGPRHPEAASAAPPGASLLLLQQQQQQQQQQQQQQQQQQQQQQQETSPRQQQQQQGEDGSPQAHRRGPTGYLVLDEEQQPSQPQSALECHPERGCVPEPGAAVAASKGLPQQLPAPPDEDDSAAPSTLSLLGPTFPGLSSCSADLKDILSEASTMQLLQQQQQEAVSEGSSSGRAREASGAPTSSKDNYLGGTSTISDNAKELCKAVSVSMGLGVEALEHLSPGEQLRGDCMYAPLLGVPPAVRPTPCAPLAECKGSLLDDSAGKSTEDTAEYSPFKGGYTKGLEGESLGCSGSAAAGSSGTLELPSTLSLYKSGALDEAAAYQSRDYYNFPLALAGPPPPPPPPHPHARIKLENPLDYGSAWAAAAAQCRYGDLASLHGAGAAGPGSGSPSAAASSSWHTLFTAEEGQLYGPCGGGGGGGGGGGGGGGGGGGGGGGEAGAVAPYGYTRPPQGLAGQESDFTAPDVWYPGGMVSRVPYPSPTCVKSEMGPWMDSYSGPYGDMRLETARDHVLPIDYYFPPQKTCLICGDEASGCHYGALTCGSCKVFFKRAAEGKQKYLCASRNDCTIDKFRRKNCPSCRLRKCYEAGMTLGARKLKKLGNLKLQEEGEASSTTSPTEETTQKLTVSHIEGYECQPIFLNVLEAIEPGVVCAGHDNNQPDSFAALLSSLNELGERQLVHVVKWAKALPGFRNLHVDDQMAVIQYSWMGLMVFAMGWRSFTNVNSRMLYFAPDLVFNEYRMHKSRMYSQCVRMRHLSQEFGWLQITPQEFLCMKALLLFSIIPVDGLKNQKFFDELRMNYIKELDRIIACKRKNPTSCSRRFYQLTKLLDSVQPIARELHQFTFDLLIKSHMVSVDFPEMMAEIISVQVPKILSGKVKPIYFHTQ
# Method: The compounds were subjected to tests using an artificial AR response reporter system in a hormone refractory prostate cancer cell line. […] After two days of incubation, reporter activities were assayed.
structure (smiles),measurement,setting,value
"CNC(=O)c1ccc(N2C(=S)N(c3ccc(C#N)c(C(F)(F)F)c3)C(=O)C23CCC3)cc1F [NC53, N-methyl-4-[7-(4-cyano-3-trifluoromethylphenyl)-8-oxo-6-thioxo-5,7-diaza-spiro[3.4]oct-5-yl]-2-fluorobenzamide]",tumor size and photon emission associated with luciferase activity,[1],decrease or stabilization of tumor size and a decrease in photon emission associated with luciferase activity
same,rate of tumor growth (tumor volume),"[2]; 10 mg/kg per day, FIG. 6",slower than mice treated with vehicle solution
same,PSA levels,"[2]; FIG. 16, relative to vehicle solution",PSA levels decreased
same,photon emission associated with luciferase activity,"[3]; FIG. 8, day 18, relative to vehicle",photon emission decreased
same,tumor growth / tumor volume,"[3]; oral once daily, FIG. 7: 10 or 50 mg/kg, 18 days","effective to prevent tumor growth and even to cause tumor shrinkage, and was distinctly more effective than bicalutamide; also recorded: tumors decreased in size"
same,luciferase activity (comparison),LIAR cell line,less than the luciferase activity upon exposure to NC98
same,luciferase activity in LNCaP-AR cells,AR,acted to reduce luciferase activity
